In patent publication US12076363B2, “Peptide epoxyketone proteasome inhibitors in combination with PIM kinase inhibitors for treatment of cancers” (ONYX PHARMACEUTICALS, INC., priority 2013, dated 2024):

Experiments:
PIM-2 [1] = assay: PIM-2 ubiquitination (K-ε-GG ubiquitin remnant profiling) after proteasome inhibitor treatment, NCI-H929 cells; type: cell-based; details: PIM-2 lysine 61, 125 nM, vs DMSO control
Experimental: (§1) Multiple myeloma cells were used to identify pro-survival proteins that were stabilized upon carfilzomib exposure by monitoring an increase in ubiquitination at specific sites associated with degradation. Two multiple myeloma cell lines, U266 and NCI-H929, were treated for 1 and 4 hours at 125 nM concentration of carfilzomib and bortezomib. DMSO treated cells were used as a control. The concentrations of active agents used were set at the IC80 of chymotrypsin activity inhibition and 48 hr cytotoxicity. The subunit inhibition profile obtained for these concentrations in vitro mimicked the subunit inhibition profile for carfilzomib in patients treated with a dose of 27 mg/m^2. Washed cell pellets were processed and profiled for ubiquitin modified proteins using a specific di-glycine antibody (PTMScan® Ubiquitin Remnant Motif (K-ε-GG) Kit #5562) that recognizes all lysine ubiquitin linkages on ubiquitin ligase substrates. All lysines on a protein that are modified with ubiquitin can be identified by this approach, and the lysines distal from the phosphorylation sites can then be associated with degradation. […] The increase in ubiquitin was also time dependent in NCI-H929 (Table 1).

PIM-2 [2] = assay: PIM-2 ubiquitination (K-ε-GG ubiquitin remnant profiling) after proteasome inhibitor treatment, U266 cells; type: cell-based; details: PIM-2 lysine 61; U266 (4 hr); 125 nM; vs DMSO control
Experimental: as §1

Row | Compound | Ubiquitin fold increases (PIM-2 [1]; H929 (1 hr)) | Ubiquitin fold increases (PIM-2 [1]; H929 (4 hr)) | Ubiquitin fold increases (PIM-2 [2])
1 | CC(C)C[C@H](NC(=O)[C@H](Cc1ccccc1)NC(=O)c1cnccn1)B(O)O [BTZ, bortezomib] | 11 fold | 21.4 fold | 31.5 fold
2 | CC(C)C[C@H](NC(=O)[C@H](CCc1ccccc1)NC(=O)CN1CCOCC1)C(=O)N[C@@H](Cc1ccccc1)C(=O)N[C@@H](CC(C)C)C(=O)[C@@]1(C)CO1 [CFZ, carfilzomib] | 10.7 fold | 24.9 fold | 34.6 fold
